Values after ≈ are worked out from the molar mass of the structure shown.
What was measured:
[1] = Particle Size Distribution (PSD) by Laser Diffraction (Malvern Mastersizer 3000); format: physicochemical; settings: dispersed in ethyl acetate
Description: Particle Size Distribution (PSD) by Laser Diffraction
Particle size analyses were conducted on a Malvern Mastersizer™ 3000 using the Hydro MV™ dispersion unit. A non-validated general PSD method/dispersant method was used to analyze the niraparib samples. The sample preparation procedure performed was as follows: Weigh 10 to 20 mg of niraparib into a 30-mL vial, add 20 mL of ethyl acetate. Disperse the sample by vortexing then sonicating the suspension in an ultrasonic bath for 1 minute. Then transfer the sample suspension to the Malvern Hydro MV™ dispersion unit to obtain obscuration between 5 and 15%.
PSD results from a Dv10 of 0.601 μ to a Dv90 of 12.9μ were obtained. […] Particle size distributions can be viewed in Table 1.

[2] = Specific Surface Area (SSA) determination by BET Sorptometry; format: physicochemical
Description: As used herein, the “specific surface area” is the total surface area of the niraparib particle per unit of niraparib mass as measured by the Brunauer-Emmett-Teller (“BET”) isotherm (i.e.: the BET SSA). As will be understood by those of skill in the art, the SSA is determined on a per gram basis and takes into account both agglomerated and non-agglomerated niraparib particles in the composition. The BET specific surface area test procedure is a compendial method included in both the United States Pharmacopeia and the European Pharmacopeia. The niraparib particles have a specific surface area (SSA) of at least 5 m^2/g. In various further embodiments, the niraparib particles have a SSA of at least 6 m^2/g, 7 m^2/g, 8 m^2/g, 9 m^2/g 10 m^2/g, 11 m^2/g, 12 m^2/g, 13 m^2/g, 14 m^2/g, 15 m^2/g, 16 m^2/g, 17 m^2/g, 18 m^2/g, 19 m^2/g, 20 m^2/g, 21 m^2/g, 22 m^2/g, 23 m^2/g, or 24 m^2/g.
Specific Surface Area (SSA) determination by BET Sorptometry
Surface area analyses were conducted on a Quantachrome NOVAtouch™ LX2 BET Sorptometer. Surface area results can be found in Table 1.

[3] = Bulk density analysis by modified USP <616> Bulk Density of Powders Method I (bulk and tapped density); format: physicochemical
From the text: As used herein, the bulk density (not tapped) of a particle is the ratio of the mass to the volume (including the interparticulate void volume) of an untapped powder sample.
As used herein, the tapped density of a particle is obtained by mechanically tapping a graduated cylinder containing the sample until little further volume change is observed.
Bulk density analysis by modified USP <616> Bulk Density of Powders Method I

physchem = settings: for solubility at 24 h: 20 °C, aqueous with cosolvent or surfactant or cyclodextrin, thermodynamic from solid
Description: The solubility was determined by using a shake-flask method. The drug was added in excess to each solution prepared in duplicate. The vials were placed on a mechanical shaker for 24 hours at 20-25° C. After shaking, solution was removed and filtered through a 0.45 μm PTFE syringe filter and analyzed by UV/Visible spectrophotometry.

Which results are given for `NC(=O)c1cccc2cn(-c3ccc([C@@H]4CCCNC4)cc3)nc12` [Niraparib, (S)-2-(4-(piperidin-3-yl)phenyl)-2H-indazole-7-carboxamide]?
Dv-10 [1]: 33.2 μ; Dv-50 [1]: 103 μ; Dv-90 [1]: 267 μ; Surface Area ([2]; BET sorptometer): 0.70 m^2/gm; specific surface area measurement ([2]; material used in dissolution testing): 0.70 m^2/g; Bulk Density ([3]; not tapped): 0.617 gm/cm^3; Tapped Density ([3]; tapped): 0.741 gm/cm^3; solubility at 24 h (physchem; 10% ethanol in water): 56.2 µg/mL (≈ 175 µM); solubility at 24 h (physchem; 10% methanol in water): 76.4 µg/mL (≈ 238 µM); solubility at 24 h (physchem; 25% ethanol in water): 332 µg/mL (≈ 1040 µM); solubility at 24 h (physchem; 25% methanol in water): 204 µg/mL (≈ 637 µM); solubility versus organic solvent concentration (physchem; methanol or ethanol, 10% and 25%): concentration dependent solubility

Source: US11738014B2, “Niraparib particles and uses thereof” (CRITITECH, INC., priority 2021, dated 2023)
